Source: patent US6893821B2, “Agents that modulate DNA-PK activity and methods of use thereof” (The Regents of the University of California, priority 2000, dated 2005)
Entries after “also recorded” stand apart in the source; their conditions may differ. Blank lines part the entries; values can stand above or below the compound they belong to.

Experiments:
[1] = target: T1, Ku antigen (Ku70/Ku80 heterodimer) (Mus musculus, UniProt P23475+P27641); test: EMSA inhibition study: cold ODN vs [32P]-labeled ds-ISS-ODN binding to Ku (affinity column fraction 20); conditions: for displacement of the interaction of [32P]-labeled ds-ISS-ODN with Ku: unlabeled ODN 0.1, 0.2 and 0.4 μg, 10 μg of fraction 20
T1 construct: from tissue; host or cells: mouse liver (BALB/c)
T1 sequence (P23475 2-608 limits assumed): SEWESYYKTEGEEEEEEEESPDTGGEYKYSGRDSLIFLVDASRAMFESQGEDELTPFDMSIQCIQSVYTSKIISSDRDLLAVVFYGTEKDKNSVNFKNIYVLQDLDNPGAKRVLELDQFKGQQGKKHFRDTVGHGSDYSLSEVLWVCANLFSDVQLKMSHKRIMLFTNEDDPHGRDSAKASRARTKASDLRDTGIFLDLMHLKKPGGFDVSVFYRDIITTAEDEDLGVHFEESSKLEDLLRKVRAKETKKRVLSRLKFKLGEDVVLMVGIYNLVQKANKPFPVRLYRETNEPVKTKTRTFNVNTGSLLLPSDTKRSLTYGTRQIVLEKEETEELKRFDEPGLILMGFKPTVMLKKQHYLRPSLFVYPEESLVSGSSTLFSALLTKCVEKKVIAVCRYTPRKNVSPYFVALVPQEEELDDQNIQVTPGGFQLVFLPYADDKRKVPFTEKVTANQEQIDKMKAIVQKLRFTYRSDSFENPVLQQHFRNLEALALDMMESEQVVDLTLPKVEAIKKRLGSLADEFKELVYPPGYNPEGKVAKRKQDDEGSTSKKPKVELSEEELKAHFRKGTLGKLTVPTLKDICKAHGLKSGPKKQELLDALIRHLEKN
T1 sequence (P27641 whole entry): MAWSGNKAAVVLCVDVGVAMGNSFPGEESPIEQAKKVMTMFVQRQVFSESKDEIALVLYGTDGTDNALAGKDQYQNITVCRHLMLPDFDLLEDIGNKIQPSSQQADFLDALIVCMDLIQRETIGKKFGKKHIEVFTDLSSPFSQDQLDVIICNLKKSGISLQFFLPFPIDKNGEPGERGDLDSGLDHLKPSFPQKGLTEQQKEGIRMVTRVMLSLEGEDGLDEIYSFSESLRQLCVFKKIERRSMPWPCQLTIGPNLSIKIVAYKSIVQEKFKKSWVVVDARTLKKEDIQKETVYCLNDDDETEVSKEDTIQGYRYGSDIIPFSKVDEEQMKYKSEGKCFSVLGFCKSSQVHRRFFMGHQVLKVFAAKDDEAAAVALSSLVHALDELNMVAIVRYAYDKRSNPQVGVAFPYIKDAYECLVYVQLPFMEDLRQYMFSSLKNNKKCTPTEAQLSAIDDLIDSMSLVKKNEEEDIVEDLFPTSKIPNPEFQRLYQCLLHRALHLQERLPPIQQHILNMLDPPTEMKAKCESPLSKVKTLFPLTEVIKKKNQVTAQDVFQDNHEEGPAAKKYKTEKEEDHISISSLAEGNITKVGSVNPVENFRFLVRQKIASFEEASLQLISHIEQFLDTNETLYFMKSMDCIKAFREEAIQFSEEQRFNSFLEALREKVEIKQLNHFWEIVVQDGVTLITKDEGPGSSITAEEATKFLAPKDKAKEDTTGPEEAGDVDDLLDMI
Description: Purification of the ISS binding protein was accomplished by sequential ion exchange, heparin and ISS-ODN affinity chromatography, as follows. Due to the relative small tissue weight per spleen, liver lysate was used after confirming its reactivity to in vivo ISS injection, as described above. Crude liver extracts from 220 mice (BALB/c, Jackson Lab., Bar Harbour, Me.) or 15 New Zealand White rabbits (Simunek, Vista, Calif.) were prepared in homogenization buffer (20 mM HEPES, pH 7.6, 250 mM KCl, 0.1 mM EDTA, 0.5 mM EGTA, 20% glycerol) with 250 mM KCl and protease and phosphatase inhibitors and then centrifuged at 100,000×g for 1.5 hours at 4° C. The supernatant (400 ml) was filtered and loaded onto a Porous 20 QE column (17 ml, Pharmacia). Two μl (10 μg) of each fraction were used in a gel retardation assay to identify the location of proteins containing DNA binding activity using [^32P]-labeled ds-ISS-ODN as a probe. Fractions containing ISS-ODN binding activity were pooled (450 ml), buffered exchanged to low salt (50 mM KCl) and loaded onto a Heparin column (2 ml). The active fractions were subsequently loaded onto a 2 ml ds-ISS-ODN affinity column [CNBr-activated Sepharose 4B (Pharmacia) coupled to 320 μg of ds-ISS-ODNs with the sequence 5′-[…]-3′; SEQ ID NO: 21]. The column was washed with 8 ml of homogenization buffer containing 50 mM KCl and the bound proteins were eluted with a 20 ml linear gradient of 50 mM to 1.55 M KCl. One-ml fractions were collected and 2 μl of each were used to test for DNA binding activity. The active fractions were concentrated, separated by SDS-PAGE and stained with Coomassie Blue. The appearance of two bands with estimated molecular weights of 70 KDa and 80 KDa correlated with the DNA binding activity. Sequence analysis (Harvard Microsequencing Facility) of peptides derived from the two bands identified Ku70 and Ku80, respectively.
Mouse liver extracts were purified through anion (QE), heparin and ISS-based affinity chromatography, as described above. Two μl of each fraction (10 μg) were incubated with [^32 P]-labeled ds-ISS-ODN at 4° C. for 30 minutes. The samples were separated on a 5% acrylamide gel and the protein-DNA complexes were detected by autoradiography. […] The active fractions were separated by sodium dodecyl sulfate-polyacrylamide gel electrophoresis (SDS-PAGE), stained with Coomassie blue and micro-sequenced.
To verify the binding specificity of the Ku protein to ISS-ODN, inhibition studies were performed using cold ss or ds ISS or mutated (M, i.e., control) ODNs. Ten μg of fraction 20 from the affinity column were incubated with [^32P]-labeled ISS-ODN in the presence of unlabeled (0.1, 0.2 and 0.4 μg, respectively) ss-ISS-ODN (lanes 3-5), ds-ISS-ODN (lanes 7-9), ss-M-ODN (lanes 11-13) or ds-M-ODN (lanes 15-17).

[2] = target: T2, DNA-PK (Homo sapiens, UniProt P12956+P13010+P78527); test: In vitro DNA-PK phosphorylation assay (affinity-purified DNA-PK, GST-p53 (1-70) substrate); assay type: biochemical; conditions: 30° C., 30 minutes; ps-ss ODNs 0-1, po-ISS-ODN 20-100, po-ds-ISS-ODN 0-10, genomic DNAs 1-5 ng/reaction
T2 construct: purchased Promega
Description: The in vitro DNA-PK phosphorylation assay was performed according to Hammarsten et al. (2000), supra, with modification. Briefly, affinity-purified DNA-PK (Promega, Mo.) was incubated with various DNA preparations (described below), 0.5 μg of GST-p53 (1-70) and 3.3 μCi of γ-^32p-ATP in a 20 μl reaction buffer (10 mM Tris-Cl, 5 mM MgCl2, 0.3 mM EDTA and 10 μM ATP) at 30° C. for 30 minutes. The reaction was stopped by addition of 4× loading buffer. The samples were boiled, loaded on 9% SDS-PAGE, transferred onto a PVDF membrane and visualized by autoradiography.
The ODNs (ps-ss) used include an ISS-ODN with an active CpG motif (AACGTT), a methylated ISS-ODN at the ^5C of the CpG dinucleotide (AA*CGTT) and various control ODNs. These ODNs were incubated at concentrations of 0, 0.1, 0.3, or 1 ng/reaction. The po-ISS-ODN was incubated at concentration of 20, 50 or 100 ng/reaction. The po-ds-ISS-ODN was incubated at concentration of 0, 0.5, 1, 2, 5 or 10 ng/reaction. The bacterial or calf thymus DNAs were each incubated at concentration of 1, 2 or 5 ng/reaction. Electrophoretic gel mobility shift assay (EMSA) was performed as previously described. Chu et al. (1999) Immunity 11:721-731; and Li et al., 1999, supra). In vitro IKK kinase assays were performed using purified IKK derived from Sf9 insect cell lysates as was previously described. Zandi et al. (1998) Science 281:1360-1363.

[3] = test system: bone marrow derived macrophages (BMDM); test: IL-6 and IL-12 levels in BMDM culture supernatants by ELISA; assay type: cell-based, mice; conditions: BMDM
Description: Ku70^−/− and Ku80^−/− mice and their wild-type (wt) control on the 129 genetic background were generated by Dr. G. Li and bred at Memorial Sloan-Kettering Cancer Center (MSKCC), New York, N.Y. BMDM from wt, Ku70^−/− and Ku80^−/− mice (MSKCC) were prepared as was previously published (Martin-Orozco et al. (1999) Int. Immunol. 11:1111), and maintained in DMEM with 10% FBS, antibiotics and 20% L-cell medium and cultured for about 10 days to allow them to mature. BMDM were seeded (2.5×10^5/well in triplicate) on 96-well plates and treated with LPS (10 μg/ml), ISS-ODN (5 μg/ml) or M-ODN (5 μg/ml).
BMDM (2.5×10^5/well) from wt, or Ku70^−/− and Ku80^−/− mice were treated with LPS (1 μg/ml), ISS-ODN (5 μg/ml) or M-ODN (5 μg/ml) for 24 hours. IL-6 (A) or IL-12 (B) levels in the supernatants were determined by ELISA. Results are means±S.D, of 5 separate experiments for wt and Ku70^−/− and 3 separate experiments for Ku80^−/− mice. (C) BMDM were incubated with LPS (10 μg/ml) or ISS-ODN (5 μg/ml) for 6.5 hours. Total RNA was isolated and analyzed for the presence of IL-6, IL-12 and GAPDH messages by a Northern blot assay, as described in Example 1. Results are means±S.D. of 5 separate experiments for wt and Ku70^−/− and 3 separate experiments for Ku80^−/− mice.
DNA-PKcs^−/− and their wt control mice on the 129 genetic background were generated by Dr. G. C. Li and bred at Memorial Sloan-Kettering Cancer Center, New York, N.Y. IKKβ^−/− Tnfr1^−/− mice were generated by Drs. Z-W Li and Karin M. ATM^−/− mice on the C57BL/6 background were generated and bred by Dr. Y. Xu (UCSD) as was previously described (Xu et al.(1996) Genes Dev. 10:2411-2422) while their wild-type (wt) control were purchased from Jackson Laboratories (Bar Harbor, Me.). BMDMs from wt, DNA-PKcs^−/− mice, IKKβ^−/− Tnfr1^−/− and ATM^−/− mice were prepared as was previously published (Martin-Orozco et al. (1999) Intl. Immunol. 11:1111-1118), maintained in DMEM with 10% FBS, antibiotics and 20% L-cell medium and cultured for 7-10 days to allow them to mature. Prior to use BMDM were seeded (2.5×10^5/well in triplicate) in 96-well plates and than treated with LPS (1 μg/ml), ISS-ODN (5 μg/ml) or M-ODN (5 μg/ml), po-ISS-ODN (10 μg/ml) or po-ds-ISS-ODN (10 μg/ml), LPS-free, ultra pure bacterial DNA (E. coli, Sigma) (15 μg/ml) or methylated bacterial DNA or LPS-free, ultra pure calf thymus DNA (Sigma) (15 μg/ml). Methylation of bacterial DNA was performed by SssI methylase (Biolab, Boston, Mass.) (15 μg/ml) following manufacturer's instruction. Where indicated the PI3K inhibitor wortmannin (Wm), at various concentrations, was added to ISS-ODN or LPS stimulated BMDMs. After 24 hours in culture, the supernatants were collected and assayed for IL-6 and IL-12 levels by ELISA kits (PharMingen, San Diego, Calif.).

[4] = test system: IκB kinase (IKK) complex; test: IKK kinase assay on IKK complex immunoprecipitated from treated BMDM (IκBα N-terminus substrate); assay type: cell-based, mice
Description: Kinase assays and immunoblotting were performed according to Li et al. ((1999) J. Exp. Med. 189:1839-1845). Briefly, BMDM were treated with ISS-ODN (5 μg/ml), M-ODN (5 μg/ml) on ps and po backbones as indicated, LPS-free bacterial DNA or methylated bacterial DNA (5 μg/ml), LPS-free calf thymus DNA (5 μg/ml), LPS (10 μg/ml) or TNFα (10 ng/ml) for the indicated time periods. Cell lysates were prepared and normalized by immunoblotting (IB) with anti-IKKα polyclonal antibodies (Santa Cruz, Santa Cruz Biotech Inc., Calif.), anti-IKKβ polyclonal antbodies (Santa Cruz) or anti-DNA-PKcs monoclonal antibodies (NeoMarker, Calif.). IκB kinase (IKK) complex or DNA-PK complex from 100 μg of the lysates were immunoprecipitated by anti-IKKα or by anti-DNA-PKcs antibodies. The kinase activities (KA) were determined by a kinase assay using the N-terminus of IκBα (for IKK) or the N-terminus of p53 (for DNA-PK) as a substrate as previously described. Wang et al. (1992) Proc. Natl. Acad. Sci. USA 89:4231-4235; Li et al.(1999), supra; and Hammarsten et al. (2000) J. Biol. Chem. 275:1541-1545.

[5] = test system: IL-6, IL-12 message in liver; test: RT-PCR for IL-6 and IL-12 message in livers of mice injected i.v. with ODN; assay type: in vivo; conditions: mice i.v. 200 μl (1 μg/μl in PBS) of ss or ds ODN; 2.5 hours

Compound: 5′-TGACTGTGAA*CGTTAGAGATGA-3′ (DNA TGACTGTGAACGTTAGAGATGA; 5-methylcytosine, chemistry not fully specified) [Methylated ISS-ODN, *C denotes 5-methyl C, reference compound]
DNA-PK activity in vitro (phosphorylation of the N-terminal portion of p53) [2]: weaker DNA-PK activators than their unmethylated counterparts

Compound: O=c1cc(N2CCOCC2)oc2c(-c3ccccc3)cccc12 [Ly, Ly294002, reference compound]
inhibition of LPS-induced secretion of IL-6 and IL-12 [3]: did not inhibit

Compound: COC[C@H]1OC(=O)c2coc3c2[C@@]1(C)C1=C(C3=O)[C@@H]2CCC(=O)[C@@]2(C)C[C@H]1OC(C)=O [Wm, wortmannin, reference compound]
effect on IKK activation by TNFα ([4]; Wm at 1000 nM): no effect | inhibition of LPS-induced secretion of IL-6 and IL-12 [3]: did not inhibit

More lines, main results first:

displacement of the interaction of [32P]-labeled ds-ISS-ODN with Ku [1]: displaced the interaction
Compound: 5′-TGACTGTGAACGTTCGAGATGA-3′ [ds-ISS-ODN]

IKK activation ([4]; DNA-PKcs-/- BMDM as compared to wt): fully responsive
Compound: TNFα [reference compound]

IKK activation ([4]; wt BMDM): little increase in IKK activity | IKK activation, concentration series ([4]; wt BMDM (FIG. 5B)): little IKK activation | interaction of Ku with ODN [1]: lack of interaction
Compound: 5′-TGACTGTGAAGGTTAGAGATGA-3′ [M-ODN, reference compound]
IL-6 and IL-12 message in liver (RT-PCR) [5]: did not display any immune stimulation; also recorded: lack of induction

displacement of the interaction of [32P]-labeled ds-ISS-ODN with Ku [1]: did not have any significant effect
Compound: 5′-TGACTGTGAACCTTAGAGATGA-3′ [ds-M-ODN, reference compound]
